Legend:
[1] = test system: HCT116 TP53 wild-type (TP53WT); assay: MTT viability assay, HCT116 TP53 wild-type, 96 h; format: cell-based, human
Experimental: removed and 100 µL DMSO was added to dissolve the formazan crystals. Photometric quantification was performed at 570 nm with a Multiskan Go 1510 photometer (Thermo Fisher […]
The absorbances were blank corrected and converted to relative proliferation. The IC50 values (concentration of 50% growth inhibition) were obtained using a sigmoidal fit of the experimental data and calculated as the mean ± standard deviation of at least three independent experiments, each in at least triplicates.
HCT116, HCT116 p53KO (each 2.000 cells/well) and CT-26 cells (500 cells/well) were seeded in 100 µL/well into flat-bottom 96-well plates (Starlab) and incubated at 37 °C for 96 h in a humidified incubator (Binder CB210) at 5% CO2. The test compound was dissolved in DMSO, serially diluted in the appropriate cell culture medium (see section above) to final DMSO concentrations of ≤0.5% v/v and 100 µL aliquots added to wells in triplicates. […] Optical densities were measured with a microplate reader (ELx808, Biotek) at a wavelength of 550 nm (and a reference wavelength of 690 nm) and blank corrected. […]
(each 3.000 cells/well) were seeded in 100 µL/well into flat-bottom 96-well plates (Starlab) and incubated at 37 °C for 24 h in a humidified incubator (Binder CB210) at 5% CO2. […] After 24 h of treatment, plates were measured by MTT assay as described above. […]

[2] = Histological evaluation of liver (H&E); format: in vivo, BALB/c mice; settings: 10 mg kg^−1 i.p., five consecutive days
Experimental: Liver tissue for histological assessment was fixed with formaldehyde and then paraffin-embedded. Haematoxylin and eosin (H&E) was used to stain tissue slices.
Animals. All experiments were carried out with male Balb/c mice according to the regulation of the Ethics Committee for the Care and Use of Laboratory Animals at the Medical University Vienna (BMWF-2022-0.770.291), the guidelines from the Austrian Animal Science Association and the Federation of European Laboratory Animal Science Associations (FELASA). The animals were kept in a pathogen-free conditions, controlled environment with 12 h light–dark cycle with ad libitum access to food and water. Every procedure was done in a laminar airflow […]
Treatment. CT-26 cells ([…] in 50 μL serum-free medium) were injected subcutaneously (s.c.) into the right flank of ten– to eleven-week-old male Balb/c mice. Three days after cell injection, all compounds (dissolved in 10% DMSO in water) were administered […]
1b/2b. Regarding anticancer activity experiments, mice were treated on 5 consecutive days over 2 weeks. Four hours after the last treatment 1a-treated mice were sacrificed and analysed for ruthenium levels in tissue via ICP-MS measurements. In case of the proteomic profiling […]
in water for 5 consecutive days. On the last day, 2 h after the last treatment, mice were euthanized, and blood was collected in an EDTA tube via heart punctation. […]

[3] = biological target: T1, ATP-dependent RNA helicase DDX3X (Homo sapiens, UniProt O00571); assay: Peptide centric local stability assay in SW480 whole cell lysate; format: binding; settings: 1 μM
T1 construct: endogenous in cells; host or cells: SW480 whole cell lysate
T1 sequence (O00571 whole entry): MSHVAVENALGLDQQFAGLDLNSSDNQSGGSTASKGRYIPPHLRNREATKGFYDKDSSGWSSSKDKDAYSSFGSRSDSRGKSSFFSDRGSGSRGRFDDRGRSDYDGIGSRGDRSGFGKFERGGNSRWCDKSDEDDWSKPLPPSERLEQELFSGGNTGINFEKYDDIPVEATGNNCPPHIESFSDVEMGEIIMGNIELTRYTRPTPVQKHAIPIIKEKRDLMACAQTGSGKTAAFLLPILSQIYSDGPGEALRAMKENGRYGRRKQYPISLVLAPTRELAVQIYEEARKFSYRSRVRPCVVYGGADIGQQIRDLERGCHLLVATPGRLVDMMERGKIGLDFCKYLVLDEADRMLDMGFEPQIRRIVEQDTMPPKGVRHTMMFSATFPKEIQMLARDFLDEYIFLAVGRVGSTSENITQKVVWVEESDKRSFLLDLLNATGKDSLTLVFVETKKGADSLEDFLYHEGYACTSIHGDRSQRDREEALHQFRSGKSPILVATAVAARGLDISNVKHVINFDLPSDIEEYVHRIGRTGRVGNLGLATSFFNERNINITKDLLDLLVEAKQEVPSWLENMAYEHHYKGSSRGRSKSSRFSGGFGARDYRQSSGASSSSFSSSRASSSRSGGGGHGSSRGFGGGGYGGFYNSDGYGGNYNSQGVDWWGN
Source text: The method relies on a limited-proteolysis strategy, where ligand-binding on target proteins is expected to increase the stability of the proteins against proteolytic digestion. This specifically enables the identification of target proteins of small molecules. […] Being a ruthenium(arene) derivative, plecstatin-1 was used to assess potential non-specific interactors of the ruthenium(cymene) fragment. […] However, among the selective interaction partners, we found specific peptides of ATP-dependent RNA helicase DDX3X, tubulin alpha-1A (TUBA1A) and albumin (ALB). Several peptides of TUBA1A and ALB were also found to be stabilized by plecstatin-1 indicating low specificity.
Peptide Local Stability Assay
SW480 cancer cells were cultivated in complete medium as above in two T75 adherent flasks.
The protein extraction was performed on ice. The flasks were washed twice with PBS (1×, 5 mL) and the wash solution was completely removed. Then, PBS (1×, 2mL, containing 1% PPC) was added in each T75 flak. The cells were scraped off and the cell suspension was transferred to 15 mL falcon tubes. […]
The clear supernatant was pooled in a 5 mL Eppendorf tube and kept on ice. The protein concentration was determined using a BCA assay as described above and adjusted to 1 µg/µL using PBS (1×, containing 1% PPC). […]

CCC1=C2[O][Ru][O]C2(n2cccn2)c2ccccc2C1=O.Cc1ccc(C(C)C)cc1 (stereo not drawn) [Compound 1a, [(3-ethyl-4-oxo-(pyrazolyl)-dihydronaphthalene)(cymene)ruthenium(II)]]
IC50 [1]: 130 ± 20 nM
liver histology (H&E) [2]: largely healthy physiology
direct interaction with DDX3X [3]: most probable direct binding partner

Source: paper PMC12320299 (Chemical Science, 2025)
